Results from US20220104492A1, “PYRIDAZINIUM COMPOUNDS FOR USE IN A METHOD OF CONTROLLING UNWANTED PLANT GROWTH” (SYNGENTA CROP PROTECTION AG, priority 2019, published 2022).
Counter-ions that a name gives are not always drawn.

Key:
Experiment in all cases: Post-emergence efficacy (glasshouse, spray application)
Assay type in all cases: in vivo
[1] = tested on: Digitaria sanguinalis (DIGSA); conditions: 312 h, Application rate 500 g/Ha, evaluated after 13 days, 100=total damage to plant, 0=no damage to plant, read-out: Control of weed species after post-emergence application, DIGSA
Experimental: (§1) Seeds of a variety of test species were sown in standard soil in pots. After cultivation for 14 days (post-emergence) under controlled conditions in a glasshouse (at 24/16° C., day/night; 14 hours light; 65 humidity), the plants were sprayed with an aqueous spray solution derived from the dissolution of the technical active ingredient formula (I) in a small amount of acetone and a special solvent and emulsifier mixture referred to as IF50 (11.12% Emulsogen EL360 TM+44.44% N-methylpyrrolidone+44.44% Dowanol DPM glycol ether), to create a 50 g/l solution which was then diluted to required concentration using a solution of 0.25% or 1% Empicol ESC70 (Sodium lauryl ether sulphate)+1% ammonium sulphate in water as diluent.
(§2) The test plants were then grown in a glasshouse under controlled conditions (at 24/16° C., day/night; 14 hours light; 65% humidity) and watered twice daily. After 13 days the test was evaluated (100=total damage to plant; 0=no damage to plant).
(§3) Ipomoea hederacea (IPOHE), Euphorbia heterophylla (EPHHL), Chenopodium album (CHEAL), Amaranthus palmeri (AMAPA), Lolium perenne (LOLPE), Digitaria sanguinalis (DIGSA), Eleusine indica (ELEIN), Echinochloa crus-galli (ECHCG), Setaria faberi (SETFA)

[2] = tested on: Eleusine indica (ELEIN); conditions: 312 h, Application rate 500 g/Ha, evaluated after 13 days, 100=total damage to plant, 0=no damage to plant, read-out: Control of weed species after post-emergence application, ELEIN
Experimental: as §1, §2, §3

[3] = tested on: Lolium perenne (LOLPE); conditions: 312 h, Application rate 500 g/Ha, evaluated after 13 days, 100=total damage to plant, 0=no damage to plant, read-out: Control of weed species after post-emergence application, LOLPE
Experimental: as §1, §2, §3

[4] = tested on: Euphorbia heterophylla (EPHHL); conditions: 312 h, Application rate 500 g/Ha, evaluated after 13 days, 100=total damage to plant, 0=no damage to plant, read-out: Control of weed species after post-emergence application, EPHHL
Experimental: as §1, §2, §3

[5] = tested on: Chenopodium album (CHEAL); conditions: 312 h, Application rate 500 g/Ha, evaluated after 13 days, 100=total damage to plant, 0=no damage to plant, read-out: Control of weed species after post-emergence application, CHEAL
Experimental: as §1, §2, §3

[6] = tested on: Ipomoea hederacea (IPOHE); conditions: 312 h, Application rate 500 g/Ha, evaluated after 13 days, 100=total damage to plant, 0=no damage to plant, read-out: Control of weed species after post-emergence application, IPOHE
Experimental: as §1, §2, §3

[7] = tested on: Amaranthus palmeri (AMAPA); conditions: 312 h, Application rate 500 g/Ha, evaluated after 13 days, 100=total damage to plant, 0=no damage to plant, read-out: Control of weed species after post-emergence application, AMAPA
Experimental: as §1, §2, §3

[8] = tested on: Echinochloa crus-galli (ECHCG); conditions: 312 h, Application rate 500 g/Ha, evaluated after 13 days, 100=total damage to plant, 0=no damage to plant, read-out: Control of weed species after post-emergence application, ECHCG
Experimental: as §1, §2, §3

[9] = tested on: Setaria faberi (SETFA); conditions: 312 h, Application rate 500 g/Ha, evaluated after 13 days, 100=total damage to plant, 0=no damage to plant, read-out: Control of weed species after post-emergence application, SETFA
Experimental: as §1, §2, §3

| Structure (SMILES) | pest or weed control at 500 g/ha [1] [%] | pest or weed control at 500 g/ha [2] [%] | pest or weed control at 500 g/ha [3] [%] | pest or weed control at 500 g/ha [4] [%] | pest or weed control at 500 g/ha [5] [%] | pest or weed control at 500 g/ha [6] [%] | pest or weed control at 500 g/ha [7] [%] | pest or weed control at 500 g/ha [8] [%] | pest or weed control at 500 g/ha [9] [%] |
| --- | --- | --- | --- | --- | --- | --- | --- | --- | --- |
| O=C(O)CS(=O)(=O)CC[n+]1ccc(-c2ncccn2)cn1 [Compound A15] | 60 | 70 | 10 | 70 | 20 | 10 | 70 | 20 | 50 |
| O=C(O)CSCC[n+]1ccc(-c2cccnn2)cn1 [Compound A18] | 60 | 100 | 70 | 100 | 90 | 70 | 100 | 60 | 60 |
| CS(=O)(=O)N(CC[n+]1ccc(-c2ncccn2)cn1)CC(=O)O [Compound A19, 2-[methylsulfonyl-[2-(4-pyrimidin-2-ylpyridazin-1-ium-1-yl)ethyl]amino]acetic acid 2,2,2-trifluoroacetate] | 70 | 100 | 30 | 80 | 90 | 70 | 100 | 40 | 70 |
| O=C(O)CNC(=O)C[n+]1ccc(-c2ccncc2)cn1 [Compound A20] | 70 | 60 | 30 | 90 | 90 | 70 | 100 | 60 | 70 |
| O=S(=O)([O-])OCCOCC[n+]1ccc(-c2ncccn2)cn1 [Compound A21, 2-[2-(4-pyrimidin-2-ylpyridazin-1-ium-1-yl)ethoxy]ethyl sulfate] | 70 | 80 | 40 | 90 | 70 | 40 | 100 | 80 | 70 |
| O=C(O)CNC(=O)CC[n+]1ccc(-c2ccncn2)cn1 [Compound A23] | 100 | 100 | 40 | 90 | 70 | 100 | 100 | 60 | 60 |
| CN(CC(=O)O)C(=O)CC[n+]1ccc(-c2ncccn2)cn1 [Compound A24] | 100 | 50 | 30 | 90 | 90 | 40 | 90 | 40 | 70 |
| CC(NC(=O)CC[n+]1ccc(-c2ncccn2)cn1)C(=O)O (stereo not drawn) [Compound A25] | 100 | 100 | 70 | 100 | 100 | 40 | 100 | 90 | 90 |
| O=C(O)CNC(=O)C[n+]1ccc(-c2ccccn2)cn1 [Compound A26] | 70 | 80 | 40 | 100 | 100 | 40 | 100 | 90 | 80 |
